Biological target: T1, FSHR (Homo sapiens, UniProt P23945)
T1 construct: expressed in transfected cells; host or cells: CHO cells, clone Cho-FSHR-LUC-1-1-43
T1 sequence (P23945 18-695): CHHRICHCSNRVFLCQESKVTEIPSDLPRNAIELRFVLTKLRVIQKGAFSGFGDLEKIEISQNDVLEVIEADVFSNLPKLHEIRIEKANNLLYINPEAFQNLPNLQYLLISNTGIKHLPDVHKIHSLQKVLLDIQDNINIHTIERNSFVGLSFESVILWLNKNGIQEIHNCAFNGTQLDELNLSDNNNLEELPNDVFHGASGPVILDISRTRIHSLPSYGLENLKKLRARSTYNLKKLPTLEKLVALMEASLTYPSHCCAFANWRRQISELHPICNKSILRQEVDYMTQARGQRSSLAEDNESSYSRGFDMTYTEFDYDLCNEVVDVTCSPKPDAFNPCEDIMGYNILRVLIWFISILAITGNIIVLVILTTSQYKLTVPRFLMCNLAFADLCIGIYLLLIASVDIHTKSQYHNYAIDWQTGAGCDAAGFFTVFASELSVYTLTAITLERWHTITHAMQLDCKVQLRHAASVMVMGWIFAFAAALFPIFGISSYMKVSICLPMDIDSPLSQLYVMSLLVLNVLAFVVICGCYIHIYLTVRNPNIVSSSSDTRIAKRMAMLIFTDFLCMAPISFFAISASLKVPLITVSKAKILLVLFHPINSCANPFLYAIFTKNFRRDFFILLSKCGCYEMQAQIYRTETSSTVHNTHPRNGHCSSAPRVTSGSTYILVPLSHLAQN
Experiment: EC50 of cyclic AMP production in CHO FSHR cells + EC20 FSH (Assay A)
Assay type: cell-based
Conditions: CHO-FSHR-LUC cells, in presence of EC20 FSH, cAMP HTRF, 1 h 37° C.
Description: EC50 of cyclic AMP production in CHO FSHR cells+EC20 FSH (Assay A)
2500 Cho-FSHR-LUC-1-1-43 cells were plated per well in 5 μl of phenol red free DMEM/F12+1% FBS. […] Cells were assayed by adding 100 μl of 2×EC20 FSH/IBMX in DMEM/F12+0.1% BSA) by Multidrop to 2 μl of test compound stamped in 384 well plates (compounds are diluted 1:50). […] The compound plate map was as follows: Column 1: 2 μl of DMSO; Column 2: 2 μl of DMSO; Columns 3-12 and 13-24: 2 μl of test compound, diluted 1:4 in 100% DMSO, or 2 μl of FSH, diluted 1:4 in DMEM/F12+0.1% BSA. The starting concentration for FSH was 50 nM (final concentration was 0.5 nM). […] 10 μl of mixed HTRF (CisBio #62AM4PEC) reagents were added per well and incubated at room temperature for 1 h. The plates were read on Envision using the cAMP HTRF—low volume 384 well protocol. […] Values given in percent (%) indicate the percental effect (response) at a certain concentration of agonist relative to the maximum response of the FSH standard.

`COc1cccc(-c2nc(C(=O)N3CCOCC3(C)C)c3n2-c2cc(OC(C)C)c(OC)cc2CC3)c1` [Compound 115] gave an EC50 of 100 to 1000 nM.

Work on `[2H]C([2H])([2H])N(C(=O)c1nc(-c2cccs2)n2c1CCc1cc(OC)c(-c3ccn(C)n3)cc1-2)C1(C)COC1` [Compound 130, 7-Methoxy-8-(1-methyl-1H-pyrazol-3-yl)-1-thiophen-2-yl-4,5-dihydro-imidazo[1,5-a]quinoline-3-carboxylic acid methyl-d3-(3-methyl-oxetan-3-yl)-amide] yielded an EC50 of 100 to 1000 nM.

`COc1cc2c(cc1OC(C)C)-n1c(-c3ccn(C)c3)nc(C(=O)N(C)C(C)(C)C)c1CC2` [Compound 15] showed an EC50 of 100 to 1000 nM.

`CCCn1nc(C)cc1-c1nc(C(=O)N2CCOCC2(C)C)c2n1-c1cc(OC(C)C)c(OC)cc1CC2` [Compound 91] was tested, and the EC50 was 1000 to 5000 nM.

`COc1cc2c(cc1OC(C)C)-n1c(-c3sc(C)cc3C)nc(C(=O)N3CCOCC3(C)C)c1CC2` [Compound 99] was tested, and the EC50 was 100 to 1000 nM.

`COc1cc2c(cc1CC(C)C)-n1c(-c3cccs3)nc(C(=O)N(C)C(C)(C)C)c1CC2` [Compound 17, 8-Isobutyl-7-methoxy-1-thiophen-2-yl-4,5-dihydro-imidazo[1,5-a]quinoline-3-carboxylic acid tert-butyl-methyl-amide] showed an EC50 of under 100 nM.

For `COc1cc2c(cc1OC(C)C)-n1c(-c3cscc3C)nc(C(=O)N3CCOCC3(C)C)c1CC2` [Compound 120], the EC50 was under 100 nM.

`COc1cc2c(cc1-c1cccnc1)-n1c(-c3ccsc3)nc(C(=O)N(C)C(C)(C)C)c1CC2` [Compound 8, 7-Methoxy-8-pyridin-3-yl-1-thiophen-3-yl-4,5-dihydro-imidazo[1,5-a]quinoline-3-carboxylic acid tert-butyl-methyl-amide] was tested, and the EC50 was under 100 nM.

`COc1cc2c(cc1OC(C)C)-n1c(-c3ccnn3CC(C)C)nc(C(=O)N3CCOCC3(C)C)c1CC2` [Compound 87] was tested, and the EC50 was 1000 to 5000 nM.

`COc1cc2c(cc1OC(C)C)-n1c(-c3cc(F)ccc3OC)nc(C(=O)N3CCOCC3(C)C)c1CC2` [Compound 104] gave an EC50 of 1000 to 5000 nM.

`COc1ccc(-c2nc(C(=O)N3CCOCC3(C)C)c3n2-c2cc(OC(C)C)c(OC)cc2CC3)cc1Cl` [Compound 103] showed an EC50 of over 5000 nM.

`COc1cc2c(cc1OC(C)C)-n1c(-c3cc(Cl)ccc3F)nc(C(=O)N3CCOCC3(C)C)c1CC2` [Compound 101] gave an EC50 of 100 to 1000 nM.

In the case of `COc1cc2c(cc1OC(C)C)-n1c(-c3cc(Cl)c(F)cc3F)nc(C(=O)N3CCOCC3(C)C)c1CC2` [Compound 113], the EC50 is reported as 1000 to 5000 nM.

Work on `COc1ccc(-c2nc(C(=O)N3CCOCC3(C)C)c3n2-c2cc(OC(C)C)c(OC)cc2CC3)cc1C` [Compound 125] yielded an EC50 of 1000 to 5000 nM.

In the case of `COc1cc2c(cc1OC(C)C)-n1c(-c3cc(C)sc3C)nc(C(=O)N3CCOCC3(C)C)c1CC2` [Compound 129], the EC50 is reported as 100 to 1000 nM.

Molecule `COc1cc2c(cc1OC(C)C)-n1c(-c3cnn(C4CCC4)c3)nc(C(=O)N3CCOCC3(C)C)c1CC2` [Compound 80] has an EC50 of over 5000 nM.

In the case of `COc1cc2c(cc1CC(C)C)-n1c(-c3ccn(C)n3)nc(C(=O)N3CCOCC3(C)C)c1CC2` [Compound 29, (3,3-Dimethyl-morpholin-4-yl)-[8-isobutyl-7-methoxy-1-(1-methyl-1H-pyrazol-3-yl)-4,5-dihydro-imidazo[1,5-a]quinolin-3-yl]-methanone], the EC50 is reported as 100 to 1000 nM.

Work on `COc1cc2c(cc1OC(C)C)-n1c(-c3cc(Cl)ccc3Cl)nc(C(=O)N(C)C(C)(C)C)c1CC2` [Compound 65] yielded an EC50 of 100 to 1000 nM.

For `COc1cc2c(cc1-c1ccn(C)n1)-n1c(-c3ccn(C)c3)nc(C(=O)N3CCOCC3(C)C)c1CC2` [Compound 73, (3,3-Dimethyl-morpholin-4-yl)-[7-methoxy-8-(1-methyl-1H-pyrazol-3-yl)-1-(1-methyl-1H-pyrrol-3-yl)-4,5-dihydro-imidazo[1,5-a]quinolin-3-yl]-methanone], the EC50 was over 5000 nM.

`COc1cc2c(cc1OC(C)C)-n1c(-c3cccs3)nc(C(=O)NC3(C)COC3)c1CO2` [Compound 138, 8-Isopropoxy-7-methoxy-1-thiophen-2-yl-4H-5-oxa-2,9b-diaza-cyclopenta[a]naphthalene-3-carboxylic acid (3-methyl-oxetan-3-yl)-amide] was tested, and the EC50 was 1000 to 5000 nM.

`COc1cc2c(cc1OC(C)C)-n1c(-c3ccc(F)c(Cl)c3)nc(C(=O)N3CCOCC3(C)C)c1CC2` [Compound 116] showed an EC50 of 100 to 1000 nM.

Molecule `COc1cc2c(cc1OC(C)C)-n1c(C3CCCCO3)nc(C(=O)N3CCOCC3(C)C)c1CC2` (stereo not shown) [Compound 85, (3,3-Dimethyl-morpholin-4-yl)-[8-isopropoxy-7-methoxy-1-(tetrahydro-pyran-2-yl)-4,5-dihydro-imidazo[1,5-a]quinolin-3-yl]-methanone] has an EC50 of over 5000 nM.

With `COc1cc2c(cc1OC(C)C)-n1c(-c3ccsc3C)nc(C(=O)N3CCOCC3(C)C)c1CC2` [Compound 106] the EC50 was 100 to 1000 nM.

`CCn1nccc1-c1nc(C(=O)N2CCOCC2(C)C)c2n1-c1cc(OC(C)C)c(OC)cc1CC2` [Compound 92] was tested, and the EC50 was 100 to 1000 nM.

`COc1cc2c(cc1OC(C)C)-n1c(-c3cncnc3)nc(C(=O)N3CCOCC3(C)C)c1CC2` [Compound 45] showed an EC50 of 100 to 1000 nM.

In the case of `COc1cc2c(cc1OC(C)C)-n1c(-c3ccccc3OC)nc(C(=O)N(C)C(C)(C)C)c1CC2` [Compound 62], the EC50 is reported as 1000 to 5000 nM.

For `COc1cc2c(cc1OC(C)C)-n1c(-c3cccnc3)nc(C(=O)N3CCOCC3(C)C)c1CC2` [Compound 39], the EC50 was 1000 to 5000 nM.

With `COc1cc2c(cc1OC(C)C)-n1c(-c3ccsc3)nc(C(=O)N3CCCN(C(=O)N4CCC4)CC3)c1CC2` [Compound 10] the EC50 was 100 to 1000 nM.

`COc1ccc(-c2nc(C(=O)N3CCOCC3(C)C)c3n2-c2cc(OC(C)C)c(OC)cc2CC3)c(C)c1` [Compound 128] gave an EC50 of 1000 to 5000 nM.

`COc1cc2c(cc1OC(C)C)-n1c(C3CCOCC3)nc(C(=O)N3CCOCC3(C)C)c1CC2` [Compound 84, (3,3-Dimethyl-morpholin-4-yl)-[8-isopropoxy-7-methoxy-1-(tetrahydro-pyran-4-yl)-4,5-dihydro-imidazo[1,5-a]quinolin-3-yl]-methanone] showed an EC50 of over 5000 nM.

`COc1cc2c(cc1CC(C)C)-n1c(-c3cccs3)nc(C(=O)N3CCOCC34COC4)c1CC2` [Compound 56, (2,8-Dioxa-5-aza-spiro[3.5]non-5-yl)-(8-isobutyl-7-methoxy-1-thiophen-2-yl-4,5-dihydro-imidazo[1,5-a]quinolin-3-yl)-methanone] gave an EC50 of under 100 nM.

For `COc1cc2c(cc1OC(C)C)-n1c(-c3cccc4c3OCO4)nc(C(=O)N3CCOCC3(C)C)c1CC2` [Compound 141], the EC50 was 100 to 1000 nM.

`COc1cc2c(cc1CC(C)C)-n1c(-c3ccsc3)nc(C(=O)N(C)C(C)(C)C)c1CC2` [Compound 18, 8-Isobutyl-7-methoxy-1-thiophen-3-yl-4,5-dihydro-imidazo[1,5-a]quinoline-3-carboxylic acid tert-butyl-methyl-amide] was tested, and the EC50 was 100 to 1000 nM.

In the case of `COc1cc2c(cc1CC(C)C)-n1c(C3CCN(C)CC3)nc(C(=O)N(C)C(C)(C)C)c1CC2` [Compound 22, N-(tert-butyl)-8-isobutyl-7-methoxy-N-methyl-1-(1-methylpiperidin-4-yl)-4,5-dihydroimidazo[1,5-a]quinoline-3-carboxamide], the EC50 is reported as 1000 to 5000 nM.

Molecule `COc1cc2c(cc1OC(C)C)-n1c(-c3ccncc3)nc(C(=O)N(C)C(C)(C)C)c1CC2` [Compound 13] has an EC50 of over 5000 nM.

Work on `[2H]C([2H])([2H])OC1CCN(C(=O)c2nc(-c3cccs3)n3c2CCc2cc(OC)c(CC(C)C)cc2-3)C1` (stereo not shown) [Compound 33, (8-Isobutyl-7-methoxy-1-thiophen-2-yl-4,5-dihydro-imidazo[1,5-a]quinolin-3-yl)-(3-methoxy-d3-pyrrolidin-1-yl)-methanone] yielded an EC50 of over 5000 nM.

For `COc1cc2c(cc1OC(C)C)-n1c(-c3cccc(F)c3)nc(C(=O)N(C)C(C)(C)C)c1CC2` [Compound 66], the EC50 was 100 to 1000 nM.

With `COc1cc2c(cc1OC(C)C)-n1c(-c3cccc4[nH]ncc34)nc(C(=O)N3CCOCC3(C)C)c1CC2` [Compound 81] the EC50 was 1000 to 5000 nM.

`COc1cc2c(cc1CC(C)C)-n1c(-c3cccs3)nc(C(=O)NC3(C)COC3)c1CC2` [Compound 55, 8-Isobutyl-7-methoxy-1-thiophen-2-yl-4,5-dihydro-imidazo[1,5-a]quinoline-3-carboxylic acid (3-methyl-oxetan-3-yl)-amide] was tested, and the EC50 was 100 to 1000 nM.

With `COc1cc2c(cc1OC(C)C)-n1c(-c3ccc(F)c(Cl)c3F)nc(C(=O)N3CCOCC3(C)C)c1CC2` [Compound 123] the EC50 was 1000 to 5000 nM.

From patent US10138233B2, “Imidazole compounds as modulators of FSHR and uses thereof” (Merck Patent GmbH, priority 2013, dated 2018)
